Assay results taken from the NIST ThermoML archive (doi:10.1016/j.tca.2010.02.010).
Numbers after ± are expanded uncertainties.

Experiments:
[1] = xn = mol fraction of the nth substance listed; conditions: 298.15 K, 101 kPa, Liquid, Vibrating tube method
[2] = 298.15 K; 101 kPa; Liquid; Vibrating tube method

## CC(C)CO [2-methyl-1-propanol] + CCCCN
[1]; x2 = 0
  mass density: 797.84 ± 0.31 kg/m3

## CCCCCl [1-chlorobutane] + CCCCN
[1]; x1 = 1
  mass density: 880.86 ± 0.15 kg/m3

## CCCCCl [1-chlorobutane] + CC(C)CO
[1]; x1 = 0.037
  mass density: 801.07 ± 0.3 kg/m3
[1]; x1 = 0.0748
  mass density: 804.35 ± 0.29 kg/m3
[1]; x1 = 0.1521
  mass density: 811.04 ± 0.28 kg/m3
[1]; x1 = 0.2331
  mass density: 817.97 ± 0.27 kg/m3
[1]; x1 = 0.3472
  mass density: 827.62 ± 0.25 kg/m3
[1]; x1 = 0.4266
  mass density: 834.27 ± 0.23 kg/m3
[1]; x1 = 0.4911
  mass density: 839.59 ± 0.22 kg/m3
[1]; x1 = 0.5817
  mass density: 847.01 ± 0.21 kg/m3
[1]; x1 = 0.6178
  mass density: 849.95 ± 0.2 kg/m3
[1]; x1 = 0.6855
  mass density: 855.42 ± 0.19 kg/m3
[1]; x1 = 0.7946
  mass density: 864.22 ± 0.18 kg/m3
[1]; x1 = 0.8885
  mass density: 871.78 ± 0.17 kg/m3
[1]; x1 = 0.9428
  mass density: 876.18 ± 0.16 kg/m3
[1]; x1 = 1
  mass density: 880.86 ± 0.15 kg/m3

## CC(C)CO [2-methyl-1-propanol] + CCCCCl
[1]; x2 = 0
  mass density: 797.84 ± 0.31 kg/m3

## CCCCN [1-butanamine] + CC(C)CO
[1]; x1 = 0.0482
  mass density: 796.16 ± 0.3 kg/m3
[1]; x1 = 0.0921
  mass density: 794.54 ± 0.29 kg/m3
[1]; x1 = 0.1855
  mass density: 790.79 ± 0.28 kg/m3
[1]; x1 = 0.2961
  mass density: 785.62 ± 0.26 kg/m3
[1]; x1 = 0.3674
  mass density: 781.71 ± 0.25 kg/m3
[1]; x1 = 0.4578
  mass density: 776.31 ± 0.25 kg/m3
[1]; x1 = 0.5021
  mass density: 773.52 ± 0.24 kg/m3
[1]; x1 = 0.5502
  mass density: 770.4 ± 0.24 kg/m3
[1]; x1 = 0.6313
  mass density: 764.59 ± 0.23 kg/m3
[1]; x1 = 0.7237
  mass density: 757.45 ± 0.22 kg/m3
[1]; x1 = 0.8191
  mass density: 749.75 ± 0.22 kg/m3
[1]; x1 = 0.9098
  mass density: 742.18 ± 0.21 kg/m3
[1]; x1 = 0.9418
  mass density: 739.52 ± 0.21 kg/m3
[1]; x1 = 1
  mass density: 734.65 ± 0.21 kg/m3

## CCCCN [1-butanamine]
[2]
  mass density: 734.65 ± 0.21 kg/m3

## CCCCCl [1-chlorobutane]
[2]
  mass density: 880.86 ± 0.15 kg/m3

## CCCCN [1-butanamine] + CCCCCl
[1]; x2 = 0
  mass density: 734.65 ± 0.21 kg/m3
[1]; x2 = 0.0428
  mass density: 740.64 ± 0.21 kg/m3
[1]; x2 = 0.0758
  mass density: 745.29 ± 0.21 kg/m3
[1]; x2 = 0.1564
  mass density: 756.7 ± 0.2 kg/m3
[1]; x2 = 0.2259
  mass density: 766.61 ± 0.2 kg/m3
[1]; x2 = 0.3163
  mass density: 779.6 ± 0.19 kg/m3
[1]; x2 = 0.3765
  mass density: 788.3 ± 0.19 kg/m3
[1]; x2 = 0.4412
  mass density: 797.66 ± 0.19 kg/m3
[1]; x2 = 0.4959
  mass density: 805.59 ± 0.18 kg/m3
[1]; x2 = 0.5804
  mass density: 817.91 ± 0.18 kg/m3
[1]; x2 = 0.6566
  mass density: 829.09 ± 0.17 kg/m3
[1]; x2 = 0.7272
  mass density: 839.52 ± 0.17 kg/m3
[1]; x2 = 0.7794
  mass density: 847.26 ± 0.17 kg/m3
[1]; x2 = 0.8465
  mass density: 857.31 ± 0.16 kg/m3
[1]; x2 = 0.8923
  mass density: 864.25 ± 0.16 kg/m3
[1]; x2 = 0.9437
  mass density: 872.12 ± 0.16 kg/m3

## CC(C)CO [2-methyl-1-propanol]
[2]
  mass density: 797.84 ± 0.31 kg/m3
